Reference: PMC9947105, “Structural remodelling of the carbon–phosphorus lyase machinery by a dual ABC ATPase” (Nature Communications, 2023)

Legend:
[1] = molecular target: T1, Phn(GHIJK)2 closed, Zn2+ site at the PhnI-PhnJ interface (His site) (Escherichia coli, UniProt P16687+P16688); experiment: cryo-EM structure, […] Å; assay type: binding; conditions: co-purified ligand modelled from density, identity not confirmed by mass spectrometry, absent in open state
T1 construct: class without PhnL density from the purified wild-type Phn(GHIJKL)2 sample (pRBS01, TEV-treated PhnK Strep-tag); with Alpha-D-ribose 1-methylphosphonate 5-triphosphate synthase subunit PhnH

[2] = molecular target: T2, Phn(GHIJKL)2 (ATPase assay) (Escherichia coli, UniProt P16678+P16679); conditions: 1 or 5 mM ATP, Mg2+, pH 7.5, 37 °C (coupled assay); hydrolysis by PhnK and PhnL
T2 construct: gene phnK

[3] = molecular target: T3, Phn(GHIJKL)2 (ATPase assay) (Escherichia coli, UniProt P16678+P16679, P16678:E171Q); conditions: 1 or 5 mM ATP, Mg2+, pH 7.5, 37 °C (coupled assay); hydrolysis by PhnK and PhnL
T3 construct: gene phnK

[4] = molecular target: Phn(GHIJKL)2, PhnL nucleotide-binding site (Escherichia coli, UniProt P16679); conditions: ATP turnover (1.5 mM ATP, 6 mM MgCl2, 37 °C, 15 s); both PhnL sites, dimer open; PhnK holds ADP + Pi
[5] = molecular target: T4, Phn(GHIJKL)2, PhnK nucleotide-binding site (Escherichia coli, UniProt P16678); experiment: cryo-EM structure, […] Å; conditions: ATP turnover (1.5 mM ATP, 6 mM MgCl2, 37 °C, 15 s); post-hydrolysis state, ADP + Pi in PhnK site
T4 construct: hetero-dodecamer, 327 kDa, expressed in E. coli Lemo21 from pRBS01 (phn genes from pBW120); C-terminal TEV-2xStrep-tag on PhnK, TEV-treated for wild-type cryo-EM sample; with Alpha-D-ribose 1-methylphosphonate 5-triphosphate synthase subunit PhnL; Alpha-D-ribose 1-methylphosphonate 5-phosphate C-P lyase; Alpha-D-ribose 1-methylphosphonate 5-triphosphate synthase subunit PhnI; Alpha-D-ribose 1-methylphosphonate 5-triphosphate synthase subunit PhnH

[6] = molecular target: T5, Phn(GHIJKL)2, PhnK nucleotide-binding site (Escherichia coli, UniProt P16678, E171Q); experiment: cryo-EM structure, […] Å; conditions: 5 mM AMPPNP, 5 mM MgCl2, pH 7.5; both PhnK sites, closed dimer; PhnL empty
T5 construct: hetero-dodecamer, 327 kDa, expressed in E. coli Lemo21 from pRBS01 (phn genes from pBW120); C-terminal TEV-2xStrep-tag on PhnK, TEV-treated for wild-type cryo-EM sample; with Alpha-D-ribose 1-methylphosphonate 5-triphosphate synthase subunit PhnL; Alpha-D-ribose 1-methylphosphonate 5-phosphate C-P lyase; Alpha-D-ribose 1-methylphosphonate 5-triphosphate synthase subunit PhnI; Alpha-D-ribose 1-methylphosphonate 5-triphosphate synthase subunit PhnH

[7] = molecular target: the molecule itself; experiment: cryo-EM structure; wild type Phn(GHIJKL)2 purified as a complex with ATP and EDTA, then 1.5 mM ATP and 6 mM MgCl2, 15 s at 37 °C (ATP turnover); 3D classes: Phn(GHIJKL)2 with ADP + Pi, Phn(GHIJK)2 closed, Phn(GHIJK)2 open
[8] = molecular target: the molecule itself; experiment: cryo-EM structure; Phn(GHIJKL)2-PhnK E171Q co-expressed from the phnGHIJKLMNOP plasmid and purified as a complex on StrepTrap with AMPPNP; 2.5 mg/mL; 25 mM HEPES/KOH pH 7.5, 125 mM KCl, 5 mM MgCl2, 5 mM BME

## O=P(O)(O)OC[C@H]1O[C@@H]2OP(=O)(O)O[C@@H]2[C@@H]1O [5-phospho-α-D-ribose-1,2-cyclic-phosphate]
[1]
  cryo-EM structure, 2.0 Å: we were able to model the ligand as 5-phospho-α-D-ribose-1,2-cyclic-phosphate

## Nc1ncnc2c1ncn2[C@@H]1O[C@H](COP(=O)(O)OP(=O)(O)OP(=O)(O)O)[C@@H](O)[C@H]1O [ATP]
[2]
  ion exchange of nucleotides; coupled pyruvate kinase / lactate dehydrogenase ATP: clear ATPase activity for the wildtype PhnGHIJKL complex
[3]
  ion exchange of nucleotides; coupled pyruvate kinase / lactate dehydrogenase ATP: we observed a significantly reduced ATPase activity
[4]
  cryo-EM structure, 1.9 Å: binding of ATP to both nucleotide binding sites in PhnL

## Nc1ncnc2c1ncn2[C@@H]1O[C@H](COP(=O)(O)OP(=O)(O)O)[C@@H](O)[C@H]1O [ADP]
[5]
  cryo-EM structure, 1.9 Å: contains ADP and Pi and consequently represents a true ATP post-hydrolysis state

## Nc1ncnc2c1ncn2[C@@H]1O[C@H](COP(=O)(O)OP(=O)(O)NP(=O)(O)O)[C@@H](O)[C@H]1O [AMPPNP]
[6]
  cryo-EM structure, 2.1 Å: clear density for AMPPNP allowed for modelling of a nucleotide in both active site pockets

B1: PhnI (natural protein, Escherichia coli)
chain: MYVAVKGGEKAIDAAHALQESRRRGDTDLPELSVAQIEQQLNLAVDRVMTEGGIADRELAALALKQASGDNVEAIFLLRAYRTTLAKLAVSEPLDTTGMRLERRISAVYKDIPGGQLLGPTYDYTHRLLDFTLLANGEAPTLTTADSEQQPSPHVFSLLARQGLAKFEEDSGAQPDDITRTPPVYPCSRSSRLQQLMRGDEGYLLALAYSTQRGYGRNHPFAGEIRSGYIDVSIVPEELGFAVNVGELLMTECEMVNGFIDPPGEPPHFTRGYGLVFGMSERKAMAMALVDRALQAPEYGEHATGPAQDEEFVLAHADNVEAAGFVSHLKLPHYVDFQAELELLKRLQQEQNHG
notes: PhnI, subunit of carbon-phosphorus lyase, Escherichia coli phn operon; untagged, encoded on the expression plasmid; Whole phn genes amplified from pBW120; also called PhnI subunit of the C–P lyase core complex
[7]
  binding result: binds

B2: PhnK E171Q with a C-terminal TEV-2xStrep-tag (natural protein, Escherichia coli)
chain: MNQPLLSVNNLTHLYAPGKGFSDVSFDLWPGEVLGIVGESGSGKTTLLKSISARLTPQQGEIHYENRSLYAMSEADRRRLLRTEWGVVHQHPLDGLRRQVSAGGNIGERLMATGARHYGDIRATAQKWLEEVEIPANRIDDLPTTFSGGMQQRLQIARNLVTHPKLVFMDQPTGGLDVSVQARLLDLLRGLVVELNLAVVIVTHDLGVARLLADRLLVMKQGQVVESGLTDRVLDDPHHPYTQLLVSSVLQN
notes: PhnK, non-transporter ABC protein of the Escherichia coli phn operon, with the Walker B mutation E171Q; also called Phn(GHIJKL)2-PhnK E171Q; not shown: 2xStrep-tag (after a TEV site), C-terminal, kept
[8]
  binding result: binds

B3: PhnK wild type, TEV-2xStrep-tag removed with TEV protease (natural protein, Escherichia coli)
chain: MNQPLLSVNNLTHLYAPGKGFSDVSFDLWPGEVLGIVGESGSGKTTLLKSISARLTPQQGEIHYENRSLYAMSEADRRRLLRTEWGVVHQHPLDGLRRQVSAGGNIGERLMATGARHYGDIRATAQKWLEEVEIPANRIDDLPTTFSGGMQQRLQIARNLVTHPKLVFMDEPTGGLDVSVQARLLDLLRGLVVELNLAVVIVTHDLGVARLLADRLLVMKQGQVVESGLTDRVLDDPHHPYTQLLVSSVLQN
notes: PhnK, non-transporter ABC protein of the Escherichia coli phn operon; Residues of the TEV site probably stay at the C-terminus after cleavage; also called wild type PhnK; not shown: 2xStrep-tag (after a TEV site), C-terminal, cleaved
[7]
  binding result: binds

B4: PhnL (natural protein, Escherichia coli)
chain: MINVQNVSKTFILHQQNGVRLPVLNRASLTVNAGECVVLHGHSGSGKSTLLRSLYANYLPDEGQIQIKHGDEWVDLVTAPARKVVEIRKTTVGWVSQFLRVIPRISALEVVMQPLLDTGVPREACAAKAARLLTRLNVPERLWHLAPSTFSGGEQQRVNIARGFIVDYPILLLDEPTASLDAKNSAAVVELIREAKTRGAAIVGIFHDEAVRNDVADRLHPMGASS
notes: PhnL, non-transporter ABC protein of the Escherichia coli phn operon; untagged; β hairpin extension residues 7-14; Identified in the complex by mass spectrometry and by the EM density; also called PhnL subunit; ABC module PhnL; source: E. coli Lemo21 (pRBS01 or pRBS01-PhnK E171Q), co-expressed, purified as part of the complex through Strep-tagged PhnK
[7]
  binding result: binds
